Test results published in patent US12187738B2, “Imidazolo derivatives, compositions and methods as orexin antagonists” (HAGER BIOSCIENCES, LLC, priority 2019, dated 2025).

Tests used:
[1] = biological target: T1, human orexin-2 receptor (Homo sapiens, UniProt O43614); assay: Intracellular calcium measurement (FLIPR), orexin-2 receptor antagonism; format: cell-based; conditions: CHO cells expressing human orexin-2 receptor, 3 nM orexin-A agonist; for inhibition at 1 µM: 1 uM compound, read-out: % Inhibition of OX2R @ 1 uM compound
T1 construct: expressed in transfected cells; host or cells: CHO cells (G418 selection)
T1 sequence (O43614 1-444): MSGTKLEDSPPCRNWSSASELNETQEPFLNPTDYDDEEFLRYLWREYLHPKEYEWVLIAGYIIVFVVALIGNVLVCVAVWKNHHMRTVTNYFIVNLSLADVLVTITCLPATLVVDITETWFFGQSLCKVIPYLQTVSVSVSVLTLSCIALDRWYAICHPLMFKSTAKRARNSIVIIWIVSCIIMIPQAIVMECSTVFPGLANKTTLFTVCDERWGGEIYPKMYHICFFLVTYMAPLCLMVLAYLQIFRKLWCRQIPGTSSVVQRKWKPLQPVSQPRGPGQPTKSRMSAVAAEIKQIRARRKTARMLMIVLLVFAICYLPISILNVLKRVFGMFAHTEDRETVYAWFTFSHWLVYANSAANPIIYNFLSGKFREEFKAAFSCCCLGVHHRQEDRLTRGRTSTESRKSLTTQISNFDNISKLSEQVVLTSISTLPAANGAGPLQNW
Experimental: (§1) Antagonistic activities on both orexin receptors have been measured for each example compound using the following procedure:
(§2) In Vitro Assay: Intracellular Calcium Measurements:
(§3) Chinese hamster ovary (CHO) cells expressing the human orexin-1 receptor and the human orexin-2 receptor, respectively, are grown in culture medium (Ham F-12 with L-Glutamine) containing 300 μg/mL G418, 100 U/mL penicillin, 100 μg/mL streptomycin and 10% heat inactivated fetal calf serum (FCS). The cells are seeded at 20′000 cells/well into 384-well black clear bottom sterile plates (Greiner). The seeded plates are incubated overnight at 37° C. in 5% CO2. Human orexin-A as an agonist is prepared as 1 mM stock solution in MeOH:water (1:1), diluted in HBSS containing 0.1% bovine serum albumin (BSA), NaHCO 3: 0.375 g/L and 20 mM HEPES for use in the assay at a final concentration of 3 nM.
(§4) Antagonists are prepared as 10 mM stock solution in DMSO, then diluted in 384-well plates using DMSO followed by a transfer of the dilutions into in HBSS containing 0.1% bovine serum albumin (BSA), NaHCO 3: 0.375 g/L and 20 mM HEPES. On the day of the assay, 50 μL of staining buffer (HBSS containing 1% FCS, 20 mM HEPES, NaHCO 3: 0.375 g/L, 5 mM probenecid (Sigma) and 3 μM of the fluorescent calcium indicator fluo-4 AM (1 mM stock solution in DMSO, containing 10% pluronic) is added to each well. The 384-well cell-plates are incubated for 50 min at 37° C. in 5% CO2 followed by equilibration at RT for 30 min before measurement.
(§5) Within the Fluorescent Imaging Plate Reader (FLIPR Tetra, Molecular Devices), antagonists are added to the plate in a volume of 10 μL/well, incubated for 120 min and finally 10 μL/well of agonist is added. Fluorescence is measured for each well at 1 second intervals, and the height of each fluorescence peak is compared to the height of the fluorescence peak induced by 3 nM orexin-A with vehicle in place of antagonist. The IC50 value (the concentration of compound needed to inhibit 50% of the agonistic response) is determined and may be normalized using the obtained IC50 value of an on-plate reference compound. Optimized conditions were achieved by adjustment of pipetting speed and cell splitting regime. The calculated IC50 values may fluctuate depending on the daily cellular assay performance. Fluctuations of this kind are known to those skilled in the art. In the case where IC50 values have been determined several times for the same compound, the geometric mean has been given.

[2] = biological target: T2, human orexin-1 receptor (Homo sapiens, UniProt O43613); assay: Intracellular calcium measurement (FLIPR), orexin-1 receptor antagonism; format: cell-based; conditions: CHO cells expressing human orexin-1 receptor, 3 nM orexin-A agonist; for inhibition at 1 µM: 1 uM compound, read-out: % Inhibition of OX1R @ 1 uM compound; for IC50: read-out: IC50 OX1R; for Kb: read-out: Kb OX1R
T2 construct: expressed in transfected cells; host or cells: CHO cells (G418 selection)
T2 sequence (O43613 1-425): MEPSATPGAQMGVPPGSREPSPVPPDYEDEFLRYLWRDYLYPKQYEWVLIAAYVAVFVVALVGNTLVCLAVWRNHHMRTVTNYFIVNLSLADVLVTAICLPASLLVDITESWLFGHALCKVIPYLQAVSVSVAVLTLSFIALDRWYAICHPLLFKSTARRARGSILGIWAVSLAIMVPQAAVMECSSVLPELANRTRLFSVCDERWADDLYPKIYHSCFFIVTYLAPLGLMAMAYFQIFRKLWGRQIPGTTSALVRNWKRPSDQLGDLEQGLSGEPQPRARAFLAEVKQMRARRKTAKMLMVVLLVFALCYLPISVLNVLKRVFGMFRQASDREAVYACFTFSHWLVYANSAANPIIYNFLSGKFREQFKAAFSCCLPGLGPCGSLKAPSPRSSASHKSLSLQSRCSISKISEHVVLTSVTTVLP
Experimental: as §1, §2, §3, §4, §5

Compound	inhibition at 1 µM [1] [%]	inhibition at 1 µM [2] [%]	IC50 [2] [nM]	Kb [2] [nM]	IC50 ([1]; read-out: IC50 OX2R) [nM]	Kb ([1]; read-out: Kb OX2R) [nM]
O=C(c1c(-c2ccccc2)nc2occn12)N1CCC[C@H]1Cn1ccc(-c2ccccc2)n1 [Example 1]	26.6	70.4				
O=C(c1c(-c2ccccc2)nc2sccn12)N1CCC[C@H]1Cn1ccc(-c2ccccc2)n1 [Example 2]	39.9	83				
O=C(c1c(-c2ccccc2)nc2occn12)N1CCC[C@H]1CNc1ccc(C(F)(F)F)cn1 [Example 3]	14.4	45.8				
O=C(c1c(-c2ccccc2)nc2sccn12)N1CCC[C@H]1CNc1ccc(C(F)(F)F)cn1 [Example 4]	25.4	61.1				
CCc1cnc(NC[C@@H]2CCCN2C(=O)c2c(-c3ccccc3)nc3occn23)nc1 [Example 5]	3.3	0.5				
CCc1cnc(NC[C@@H]2CCCN2C(=O)c2c(-c3ccccc3)nc3sccn23)nc1 [Example 6]	16.2	-5.39				
CCc1cnc(NC[C@@H]2[C@H](C)CCCN2C(=O)c2c(-c3ccccc3)nc3occn23)nc1 [Example 7]	6.75	48.1				
C[C@@H]1CCCN(C(=O)c2c(-c3ccccc3)nc3occn23)[C@@H]1CNc1ccc(C(F)(F)F)cn1 [Example 8]	1.8	81.6	11	2		

Other lines, results leading:

inhibition at 1 µM [1] [%]	inhibition at 1 µM [2] [%]	IC50 [2] [nM]	Kb [2] [nM]	IC50 ([1]; read-out: IC50 OX2R) [nM]	Kb ([1]; read-out: Kb OX2R) [nM]	Compound
10.7	81.4	18	4			C[C@@H]1CCCN(C(=O)c2c(-c3ccccc3)nc3sccn23)[C@@H]1CNc1ccc(C(F)(F)F)cn1 [Example 9]
9.37	63.5	270	57			CCc1cnc(NC[C@@H]2[C@H](C)CCCN2C(=O)c2c(-c3ccccc3)nc3sccn23)nc1 [Example 10]
12	16.1					CCc1cnc(NC[C@@H]2CCCN2C(=O)c2c(-c3ccc(F)cc3)nc3sc(C)nn23)nc1 [Example 11]
11.8	79.8	13	3			Cc1nn2c(C(=O)N3CCC[C@@H](C)[C@H]3CNc3ccc(C(F)(F)F)cn3)c(-c3ccc(F)cc3)nc2s1 [Example 12]
29	62.8					O=C(c1c(-c2ccccc2F)nc2sccn12)N1CCC[C@H]1CNc1ccc(C(F)(F)F)cn1 [Example 13]
57	87.4	12	3	1750	241	O=C(c1c(-c2ccccc2F)nc2sccn12)N1CCC[C@H]1Cn1ccc(-c2ccccc2)n1 [Example 14]
15.2	25.1					CCc1cnc(NC[C@@H]2CCCN2C(=O)c2c(-c3ccccc3F)nc3sccn23)nc1 [Example 15]
34.4	90.3	7	1.5			O=C(c1c(-c2ccc(F)cc2)nc2scnn12)N1CCC[C@H]1Cn1ccc(-c2ccccc2)n1 [Example 16]
8.06	4.5					CCc1cnc(OC[C@@H]2CCCN2C(=O)c2c(-c3ccccc3)nc3occn23)nc1 [Example 17]
14.9	37.1					O=C(c1c(-c2ccccc2)nc2occn12)N1CCC[C@H]1COc1ccc(C(F)(F)F)cn1 [Example 18]
